The values below come from patent publication US20150299648A1, “IMPROVED CULTIVATION MEDIA AND PROCESS FOR IMPROVED PROTEIN PRODUCTION BY PICHIA STRAINS” (priority 2012, published 2015).

“Also recorded” adds a separate entry of the source.

In series [1] the test system is P. pastrois strain yGLY21058. The series can be described thus: Fermentability of sugars or sugar alcohols on M agar plate. The series is classed as cell-based, Pichia pastoris. The conditions noted are these: 6 days at 30° C.; for Growth on M agar: single carbon source 1% w/v; for Fermentability category from colony formation on the plate: minimal agar plate. As for the experimental part: The 1 mL of RCB (Research Cell Bank in 20% of glycerol) for P. pastrois strain yGLY21058 producing glycosylated insulin precursor (GIP) was inoculated in 200 mL of Seed medium (4% glycerol, 1% yeast extract, 2% soytone, 1.34% YNB without amino acids, 0.23% K2HPO4, 1.19% KH2PO4, 8 μg/L biotin) and cultivated for 48 h at 24° C. The cell pellet was harvested by centrifugation at 4,000 rpm for 10 min and re-suspended with PBS buffer (pH 7.4) to wash the cell twice. The 0.1 mL of cell suspension with wash buffer was transferred and spread onto the minimal agar plate containing each sugar or sugar alcohol (1% w/v), which is listed in Table 1.
YPD (1% yeast extract, 2% yeast peptone, and 1% glucose) agar plate was used for the positive control and a minimal agar plate without carbon sources (M) was used for negative control. Growth of Pichia pastoris on M agar plate containing single carbon source was categorized as no (−), slow (+), moderate (++), and fast (+++) colony formation for 6 days in Table 1.

Series [2] concerns P. pastoris YGLY 21058 strain. As to the kind of experiment: Fermentability of sorbitol and maltitol determined by HPLC. It is filed as cell-based, Pichia pastoris. The conditions noted are these: BSGY; maltitol 50 g/L; methanol induction phase. As for the experimental part:
The P. pastoris YGLY 21058 strain was cultivated in 1 L bioreactor and 50 g/L of maltitol was mixed in BSGY medium. The samples were taken at the beginning of fermentation, at the end of glycerol fed-batch before adding maltitol, and two different time-points in methanol induction phase, as shown in FIG. 3. The supernatant was separated by the centrifugation at 13,000 rpm for 1 minutes using micro-centrifuge. The samples properly diluted with distilled water were filtered using 0.2 μm-filter and the residual concentrations of sorbitol and maltitol were determined by HPLC using AMINEX HPX-87H column. The residence times (RTs) for sorbitol and maltitol were 11.5 and 9.3 min respectively. The data were shown in FIG. 3 as two independent runs of cultivation.

Series [3] is described as follows: Osmolality of sugar and sugar alcohol solutions (osmometer). The series is classed as physicochemical. The conditions noted are these: 500 mM in water. Here is the method:
The sugar and sugar alcohol solutions used as osmoprotectant supplements were prepared at 500 mM in water and their osmolalities were measured using Osmometer (Multi-somotte, Model 2430, Precision Systems Inc, MA, USA). The osmolality of solution was directly proportional to the concentration of component in solution. For instance there was a linear relationship between sorbitol concentration (mM) and osmolality of the solution (mOsm/kg) as shown in FIG. 1A. The osmolalities of maltitol, sorbitol, glycerol, and glucose at 500 mM in water were 590±4, 544±3, 541±3, and 568±0 mOsm/kg respectively (FIG. 1B). The osmolaties of sorbose, mellibiose, ribose, quinic acid and myo-inositol at 500 Mm in water were (480±5), (500±5), (470±5), (480±5) AND (510±10), respectively.

Series [4] deals with P. pastoris YGLY21058 strain producing glycosylated insulin precursor (GIP). As to the kind of experiment: Screening of sugars and sugar alcohols as osmoprotectants in fed-batch cultivation. The series is classed as cell-based, Pichia pastoris. The conditions noted are these: for Intact GIP molecule after 80 h-induction (SDS-PAGE): 50 g/L in initial batch medium of BSGY; for Index of cell lysis (double stranded DNA released into culture medium): 50 g/L in initial batch BSGY, 80 h of induction. Here is the method:
The P. pastoris YGLY21058 strain was cultivated in 1 L glass bioreactors (DASGIP, Germany). For fermentation in 1 L bioreactor, a vial (1 mL) of RCB (Research Cell Bank) was inoculated into 200 mL of Seed medium in 1 L-baffled flask. The culture incubated at 24° C., while shaking on an orbital shaker at 180 rpm for 48±4 h. The bioreactor was inoculated with a 10% volumetric ratio of seed to initial BSGY medium. Cultivation conditions were following: temperature set at 24±0.5° C., pH controlled at 6.5±0.1 with 30% ammonium hydroxide, dissolved oxygen was maintained at 20% of saturation by cascading agitation rate on the addition of pure oxygen to the fixed airflow rate of 0.7 vvm. After depletion of the initial glycerol (4%), a 50% glycerol solution containing 12.5 mL/L of PTM1 salts (6.5 g FeSO4.7H2O, 2.0 g ZnCl2, 0.6 g CuSO4.5H2O, 3.0 g MnSO4.7H2O, 0.5 g CoCl2.6H2O, 0.2 g NaMoO4.2H2O, 0.2 g biotin, 80 mg NaI, 20 mg H3BO4 per L) was fed constantly at an initial rate of 0.08 h^−1 for 8 h. Induction was initiated after a 30 min starvation phase when methanol was fed. Methanol was fed constantly starting at 1.33 g/L/h under methanol limited condition. Agitation speed was changed from cascade mode with agitation speed and pure oxygen.
For comparisons, each sugar or sugar alcohol was added at 50 g/L in initial batch medium of BSGY. In case of control without sugar supplementation (BSGY medium only), glycosylated insulin precursor (GIP) was detectable at 58 h of induction, but not detected at 80 h of induction due to most likely proteolytic degradation caused by heavy cell lysis (Lanes 1 and 2 of FIG. 2 A).

With `OC[C@@H](O)[C@@H](O)[C@H](O)[C@@H](O)CO` [D-Sorbitol], in series [1], the “Growth on M agar” value is reported as “+++”. Besides, the “Consumption / fermentability in fed-batch fermentation (residual concentration by HPLC)” value in series [2] was “actively metabolized; also recorded: highly fermentable”. The compound also returned an Osmolality of solution in series [3] of 544±3 mOsm/kg.

`OC[C@H]1O[C@H](O[C@H]2O[C@H](CO)[C@@H](O)[C@H](O)[C@H]2O)[C@H](O)[C@@H](O)[C@@H]1O` [α,α-Trehalose]: the “Growth on M agar” value in series [1] is “++”.

Turning to `O=C(CO)[C@@H](O)[C@H](O)[C@@H](O)CO` [L-Sorbose], in series [1], the “Fermentability category from colony formation on the plate” value (“Fermentability category” below) was “very slow colony formation” and the “Growth on M agar” value was “+”. Moreover, the Osmolality of solution in series [3] worked out at 480±5 mOsm/kg. Also, the “Intact GIP molecule after 80 h-induction (SDS-PAGE)” value (“Intact GIP molecule” for short) in series [4] is reported as “intact GIP molecule was maintained”.

As to `O=C(O)[C@]1(O)C[C@@H](O)[C@@H](O)[C@H](O)C1` [D-Quinic acid], in series [1], the “Fermentability category” value was “strict non-fermentable substrates” and the “Growth on M agar” value is reported as “−”. The compound also gave an Osmolality of solution in series [3] of 480±5 mOsm/kg.

With `OC[C@H]1O[C@H](OCC2O[C@@H](O)[C@H](O)[C@@H](O)[C@@H]2O)[C@H](O)[C@@H](O)[C@H]1O` (stereo partly drawn) [D-Melibiose], in series [1], the “Fermentability category” value is reported as “very slow colony formation” and the “Growth on M agar” value is on record as “+”. In series [3], this compound yielded an Osmolality of solution of 500±5 mOsm/kg. The “Intact GIP molecule” value in series [4] is listed as “intact GIP molecule was maintained”.

With `O[C@H]1[C@H](O)[C@@H](O)[C@H](O)[C@@H](O)[C@H]1O` [myo-Inositol], in series [1], the “Fermentability category” value was “very slow colony formation” and the “Growth on M agar” value was “+”. The compound further registered an Osmolality of solution in series [3] of 510±10 mOsm/kg. Also, in series [4], the “Index of cell lysis (double stranded DNA released into culture medium)” value (from here on “Index of cell lysis”) is given as “much lower than that of control” and the “Intact GIP molecule” value is recorded as “intact GIP molecule was maintained”.

For `OC[C@H]1O[C@H](O[C@H]2[C@H](O)[C@@H](O)[C@H](O)O[C@@H]2CO)[C@H](O)[C@@H](O)[C@@H]1O` [D-Maltose], in series [1], the “Fermentability category” value is “strict non-fermentable substrates” and the “Growth on M agar” value is recorded as “−”. In series [4] (methanol induction phase of cultivation), the “Robustness of Pichia production strains” value is reported as “significantly improved the robustness”.

`O=C1O[C@H](CO)[C@@H](O)[C@H](O)[C@H]1O` [D-Glucono-1,5-lactone]: in series [1], the “Fermentability category” value is reported as “strict non-fermentable substrates” and the “Growth on M agar” value is “−”.

Turning to `O=C(O)[C@H](O)[C@@H](O)[C@H](O)[C@H](O)CO` [D-Gluconate], in series [1], the “Fermentability category” value is recorded as “very slow colony formation” and the “Growth on M agar” value is “+”.

Turning to `OC[C@H](O)C(O)[C@@H](O)CO` [L-Arabitol], in series [1], the “Fermentability category” value is reported as “strict non-fermentable substrates” and the “Growth on M agar” value is “−”.

In the case of `O=C[C@H](O)[C@H](O)[C@H](O)CO` [D-Ribose], in series [1], the “Fermentability category” value was “very slow colony formation” and the “Growth on M agar” value is “+”. Besides, in series [3], the Osmolality of solution worked out at 470±5 mOsm/kg. In series [4], the “Index of cell lysis” value is “much lower than that of control” and the “Intact GIP molecule” value is recorded as “intact GIP molecule was maintained”.

Regarding `OCC(O)CO` [Glycerol], in series [1], the “Growth on M agar” value is given as “+++”. This compound also displayed an Osmolality of solution in series [3] of 541±3 mOsm/kg.

With `OC[C@H]1O[C@H](OC[C@H]2O[C@H](O[C@]3(CO)O[C@H](CO)[C@@H](O)[C@@H]3O)[C@H](O)[C@@H](O)[C@@H]2O)[C@H](O)[C@@H](O)[C@H]1O` [D-Raffinose], the “Growth on M agar” value in series [1] is listed as “++”.

Consider `O=C[C@H](O)[C@@H](O)[C@H](O)[C@H](O)CO` [D-Glucose], for which the “Growth on M agar” value in series [1] is on record as “+++”. The Osmolality of solution in series [3] is reported as 568±0 mOsm/kg.

On to `OC[C@@H](O)[C@@H](O)[C@@H](O)CO` [D-Ribitol], for which, in series [1], the “Fermentability category” value is “strict non-fermentable substrates” and the “Growth on M agar” value was “−”.

As to `OC[C@@H](O)[C@H](O)[C@@H](O)CO` [Xylitol], in series [1], the “Fermentability category” value is “strict non-fermentable substrates” and the “Growth on M agar” value is “−”.

In the case of Inulin, in series [1], the “Fermentability category” value was “very slow colony formation” and the “Growth on M agar” value is reported as “+”.

For the compound `O=C[C@@H](O)[C@H](O)[C@H](O)CO` [D-Arabinose], in series [1], the “Fermentability category” value is reported as “strict non-fermentable substrates” and the “Growth on M agar” value is given as “−”. Moreover, in series [4], the “Index of cell lysis” value is on record as “much lower than that of control” and the “Intact GIP molecule” value is “intact GIP molecule was maintained”.

For the compound `O=C[C@H](O)[C@@H](O)[C@H](O)CO` [D-Xylose], in series [1], the “Fermentability category” value was “very slow colony formation” and the “Growth on M agar” value is recorded as “+”.
